Assay results: patent publication US11933781B2, “Fibrosis model and methods of use thereof” (The Regents of the University of Colorado, priority 2020, dated 2024)

What was measured:
Assay type in all cases: cell-based, human
[1] = test system: control HBECs; assay: Induced unjamming of control HBECs at air-liquid interface (live cell imaging, cell shape); conditions: for ability to induce an unjammed state in control epithelia: control HBECs at ALI day 14; for induction of unjammed state in mature monolayer: control HBECs treated at ALI day 28; for time at which migratory capacity of control epithelia begins to diminish: treatment at day 14 of ALI
Excerpt: (§1) Epithelial Cell Culture: Primary human bronchial epithelial cells (HBECs) were obtained from two sources (1) provided by Dr. Hong Wei Chu at National Jewish Health, or (2) lung transplant collection at the University of Colorado Hospital (IRB protocol: 11-1664 or 18-0572). Epithelial cells from bronchial brushes or CT-guided dissection were expanded to passage 2 before being cultured at air liquid interface (ALI). Control (N=11), IPF (N=6), and COPD (N=3) were age matched and controls had no history of chronic lung disease (Table 1). Cells were seeded on 24-Transwell plates (Corning, Corning, New York, 3470) coated with type I collagen (Corning, Corning, New York, 354236) and maintained under submerged conditions for five to seven days until the cells reached confluence. Culture media was a 1:1 mixture of DMEM and BEBM (Lonza, Basel, Switzerland, CC170) supplemented with retinoic acid (Sigma-Aldrich, Germany, R-2625) nystatin (Sigma-Aldrich, Germany N1638), and bovine serum albumin (FisherSci, Thermo Fisher Scientific, Waltham, Massachusetts BP9703100). Once confluent, apical media was removed and maintained at ALI. HBECs began recapitulating the in vivo airway, with production of mucus (6-9 days after establishing ALI) and development of a pseudostratified epithelium. Cells were switched to a starvation media (lacking supplemental epidermal growth factor, hydrocortisone, and bovine pituitary extract) 24 hours prior to experimentation.
(§2) For inhibitor, activator, and ligand treatments HBECs were cultured in a starvation media in the absence of EGF, hydrocortisone, and bovine pituitary extract for 24 hours prior to treatment initiation. Cells were then treated for 2-4 hours (with exception of AREG neutralizing antibody which was maintained in the culture media), media was aspirated, the wells were washed with warm PBS and then replaced with fresh starvation media without inhibitor/activator/ligand present, and subsequently imaged. For experiments that required subsequent media changes (96 hour) cells fresh starvation media was changed 48 hours afterwards.
(§3) Live Cell Imaging and Dynamics Measurement: To assess cellular dynamics, time-lapse microscopy and subsequent analysis were completed. Two imaging schemes were utilized: (1) images were taken every 5 minutes for 200 minutes during HBEC differentiation; (2) images were taken every 20 minutes for 48, 96, or 144 hours after HBEC experimental intervention. Phase contrast images were acquired on a Keyence BZ-X810 with a stage incubator (37° C., 5% CO2). Dynamic analysis followed previously published workflows (10-12, 22). Briefly, using phase contrast images instantaneous velocities were mapped by particle image velocimetry utilizing open source PIVLab on MATLAB. Velocity fields were obtained with 2 passes (64×64 and 32×32 pixel size interrogation window with 50% overlap) with a pixel size of 0.75488 μm using a Fast Fourier Transformation method. Trajectories from the PIV were seeded onto a grid and obtained via forward-integration of subsequent fields. These values were then used to determine mean-squared-displacement (MSD) and self-overlap order parameter (Q): MSD(Δt)= ? ri(t+Δt)−ri(t)|2 ? and Q(Δt)=N−1ΣwiNi=1 as previously published. Instantaneous room mean squared velocity (VRMS) of the monolayer was obtained as previously published: VRMS(t)=√1MΣ ? |v(t)2 ? jMj=1
(§4) Cell Shape Analysis: Cell shape measurements were achieved via cell border delineation by F-actin immunofluorescence. Images were segmented utilizing SeedWater Segmenter. Similar to previously published workflows, we segmented images which were subsequently analyzed in ImageJ for the shape index (q=Perimeter√Area) and aspect ratio (major and minor axis) for all cells within a given field of view. For each experimental condition an n≥3 was used with at least 3 independent wells per donor per treatment condition. […]

[2] = test system: control HBECs; assay: Immunofluorescence of Ki67 and YAP in control HBECs; conditions: for cell type showing YAP nuclear localization: control HBECs after treatment; for YAP nuclear localization / proliferation (Ki67+): control HBECs, 48 hours after treatment
Description: (§5) Immunofluorescence staining: Cells were fixed with 4% paraformaldehyde in PBS with calcium and magnesium for 30 minutes at room temperature. Cells were then washed with PBS and subsequently permeabilized (Triton™-X, at 0.1%) and blocked with 5% bovine serum albumin in PBS for 1 hour at room temperature. Cells were then incubated for >16 hours at 4 degrees with primary antibodies. Primary antibodies were aspirated, and cells were washed with PBS+0.1% Tween-20 at room temperature. Cells were then incubated for 1 hour at room temperature with secondary antibodies (1:500) and/or Phalloidin-iFluor™ 488 1:2000. Cells were stained with 4′,6-diamidino-2-phenylindole at 1:20000 (BioLegend®, San Diego, California, 422801). Subsequently, transwell membranes, or hydrogels, were removed from the well and mounted on glass slides with Fluoromount-G® (SouthernBiotech™, Birmingham, Alabama, 0100-01). Slides were then visualized using an Olympus BX63 microscope (Olympus, Tokyo, Japan).
(§6) Immunofluorescence and cell number quantification for HBEC experiments: For total fluorescence quantification (i.e., ERBB2), all images were processed in the same manner with the same microscopy settings. To determine mean fluorescence the channel of interest was separated in ImageJ, and the mean gray value was measured for the field of view and normalized by the total number of cells. Cell counting was achieved by taking 40×images and manually counting all nuclei in a field of view (approximately 200-300). The number of cells also expressing the marker of interested were then counted and normalized by the total number of cells per field. For each experiment a biological n≥3 was used with at least 5 fields of view per well and at least 2 wells being counted in total per donor.

[3] = test system: IPF HBECs; assay: YAP immunofluorescence in IPF HBECs; conditions: IPF HBECs 48 hours after treatment
Description: as §5, §6

[4] = test system: IPF HBECs; assay: Induction of the unjammed-to-jammed transition (UJT) in IPF HBECs; conditions: day 14 IPF HBECs
Excerpt: as §1, §2, §3, §4

[5] = test system: IPF HBECs; assay: Gene expression of ERBB receptors, YAP target genes and MUC5B in IPF HBECs; conditions: IPF HBECs after inhibition
Description: Quantitative RT-PCR Analysis: Total RNA was extracted using RNeasy® Mini kit (Qiagen, Hilden, Germany) and quantified by NanoDrop™ (ThermoFisher Scientific™, Waltham, Massachusetts).Reverse transcription was completed using the High Capacity cDNA Reverse Transcription Kit (Applied Biosystems™, Thermo Fisher Scientific™, Waltham, Massachusetts). Gene expression was analyzed by using TaqMan® Advanced Master Mix (Thermo Fisher Scientific™, Waltham, Massachusetts and TaqMan® assays. They were subsequently run in triplicate on the ViiA™ 7 Real-Time machine (Thermo Fisher Scientific™, Waltham, Massachusetts). Primer IDs were: β-ACTIN, Hs01060665_g1; MUC5B, Hs00861595_m1; MUC5AC, Hs01365616_m1; EGFR, Hs0176090_m1; ERBB2, Hs01001580_m1; ZEB1, Hs00232783_m1; SNAI1, Hs00195591_m1; VIM, Hs00185584_m1; CTGF, Hs00170014_m1; AREG, Hs00950669_m1; FN1, Hs01549976_m1; PDGFRA, Hs00998018_m1; PDGFA, Hs00234994_m1; PDGFRB, Hs01019589_m1; PDGFB, Hs00966522_m1; TGFBRI, Hs00610320_m1; TGFBI, Hs00998133_m1; COL1A1, Hs00164004_m1; ACTA2, Hs00426835; MMP3, Hs00968305_m1; MMP9, Hs00957562_m1; TIMP1, Hs01092512_g1; and TIMP2, Hs00234278_m1.

[6] = test system: COPD HBECs; assay: Induction of jamming in COPD HBECs
Excerpt: as §1
as §2, with “afterwards. […]” for “afterwards.”

[7] = test system: control HBECs; assay: Barrier function (TEER) of control HBECs
Description: Barrier function measurements: The transepithelial electrical resistance (TEER) was assessed utilizing the Millicell® ERS-2 Voltohmeter (MilliporeSigma™, Burlington, Massachusetts, MERS00002). Briefly, cells were incubated with PBS with calcium and magnesium (at 37 degrees for 20 minutes prior to barrier measurement). The probe was inserted, and the resultant ohm reading was recorded. The final value was calculated by:
This value was subtracted by 100 (the resistance of a blank well) and multiplied by 0.33 (the surface area of a single well in a 24 well plate). A minimum of 3 wells were recorded per donor per treatment condition. These values were subsequently averaged per treatment and graphed.

[8] = control HBECs by MUC5B promoter variant status

| Compound | ability to induce an unjammed state in control epithelia [1] | YAP nuclear exclusion [3] | induction of the UJT (jamming) in IPF epithelia [4] | transcription of ERBB receptors, YAP target genes and MUC5B [5] | further results |
| --- | --- | --- | --- | --- | --- |
| CN1C(=O)c2sccc2N(C)c2nc(Nc3ccc(S(N)(=O)=O)cc3)ncc21 [XMU-MP-1] | had the ability to elicit an unjammed state | – | – | – | induction of unjammed state in mature monolayer [1]: unjammed state was induced regardless of monolayer maturity; time at which migratory capacity of control epithelia begins to diminish [1]: ~36 h; cell type showing YAP nuclear localization [2]: predominantly in multi-ciliated cells (FOXJ1+); YAP nuclear localization [2]: did lead to YAP nuclear localization; proliferation (Ki67+) [2]: neither AREG nor XMU treatment resulted in increased proliferation |
| C#Cc1cccc(Nc2ncnc3cc(OCCOC)c(OCCOC)cc23)c1 [Erlotinib] | – | results in YAP nuclear exclusion | induces jamming in IPF epithelia | decreases 738 ERBB-YAP target gene expression | – |
| NCC(=O)Nc1ccc(-n2nc(C(F)(F)F)cc2-c2ccc3c(ccc4ccccc43)c2)cc1 [OSU03012, OSU-03012] | – | results in YAP nuclear exclusion | induces jamming in IPF epithelia | decreases 738 ERBB-YAP target gene expression | induction of jamming in COPD epithelia [6]: not responsive to ERBB-YAP inhibition |
| TGFα: High-affinity EGFR ligand, EGFR agonist (R&D Systems 239-A-100) | only AREG treatment had the ability to induce an unjammed state | – | – | – | – |
| CS(=O)(=O)CCNCc1ccc(-c2ccc3ncnc(Nc4ccc(OCc5cccc(F)c5)c(Cl)c4)c3c2)o1 [Lapatinib] | – | results in YAP nuclear exclusion | induces jamming in IPF epithelia | decreases 738 ERBB-YAP target gene expression | – |
| CNc1nc(-c2ccc3c(N)n[nH]c3c2)cc(N2C[C@@H](C(=O)NC3CCCCC3)CC[C@H]2C)n1 [GSK2334470] | – | results in YAP nuclear exclusion | induces jamming in IPF epithelia | – | – |
| AREG: Recombinant amphiregulin, low affinity EGFR ligand (R&D Systems 262-AR) | only AREG treatment had the ability to induce an unjammed state | – | – | – | barrier function in genotype-dependent unjamming ([7]; control HBECs GG or GT): did not alter barrier function; barrier function (TEER) after treatment ([7]; control HBECs at ALI day 14): without diminishing barrier function; persistence in the unjammed state, rs35705950 GT vs GG epithelia [1, 8]: persisted in the unjammed state significantly longer than GG epithelia; root-mean-squared velocity, rs35705950 GT vs GG epithelia [1, 8]: higher root-mean-squared velocity than their GG counterparts; induction of unjammed state in mature monolayer [1]: unjammed state was induced regardless of monolayer maturity; time at which migratory capacity of control epithelia begins to diminish [1]: ~36 h; cell type showing YAP nuclear localization [2]: predominantly in multi-ciliated cells (FOXJ1+); YAP nuclear localization [2]: did lead to YAP nuclear localization; proliferation (Ki67+) [2]: neither AREG nor XMU treatment resulted in increased proliferation |
| FC(F)(F)c1ccc(/C=C/c2nc(COc3ccc(CCCCn4ccnn4)cc3)co2)cc1 [Mubritinib] | – | results in YAP nuclear exclusion | induces jamming in IPF epithelia | decreases 738 ERBB-YAP target gene expression | – |
| NC1(c2ccc(-c3nc4ccn5c(=O)[nH]nc5c4cc3-c3ccccc3)cc2)CCC1 [MK-2206] | – | – | did not induce the UJT | – | – |
| EGF: High-affinity EGFR ligand, EGFR agonist (R&D Systems 263-EG) (NSDSECPLSHDGYCLHDGVCMYIEALDKYACNCVVGYIGERCQYRDLKWWELR; Epidermal growth factor; UniProt P01133 971-1023, looked up) | only AREG treatment had the ability to induce an unjammed state | – | – | – | – |
| CN1CCN(c2nc(C3=C(c4c[nH]c5ccccc45)C(=O)NC3=O)c3ccccc3n2)CC1 [Sotrastaurin] | – | – | did not induce the UJT | – | – |
| COc1cc2ncnc(Nc3cccc(Cl)c3)c2cc1OC [AG1478, Tyrphostin AG-1478] | – | results in YAP nuclear exclusion | halted migration and induced a cobblestone appearance in the epithelia | reduced the transcription of ERBB receptors, YAP target genes, and MUC5B nearly back to control levels | induction of jamming in COPD epithelia [6]: not responsive to ERBB-YAP inhibition |
